Drawing on PubChem BioAssay AID330 (DTP/NCI, 2004), this text covers T/C for 18 compounds.

In the assay the test system is P388 leukemia ip, CD2F1 mice, survival T/C. Briefly: NCI In Vivo Anticancer Drug Screen. Data for tumor model P388 Leukemia (intraperitoneal) in CD2F1 (CDF1) mice. Conditions: endpoint: median survival time, higher = longer survival. Summed up: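 Mice carrying the transplanted tumor received test compound or vehicle. Survival was recorded in each group, and the value is the treated-group measurement divided by that of the vehicle-treated control group.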

The mark [1] stands for this setting: dose: 60.0 mg/kg/injection, schedule: Q01DX005 (ip), vehicle: saline with Tween-80.
[2] abbreviates: dose: 120.0 mg/kg/injection, schedule: Q01DX005 (ip), vehicle: saline with Tween-80.
Where [3] appears, read: dose: 240.0 mg/kg/injection, schedule: Q01DX005 (ip), vehicle: saline with Tween-80.
[4] abbreviates: dose: 25.0 mg/kg/injection, schedule: Q01DX001 (ip), vehicle: saline with Tween-80.
Where [5] appears, read: dose: 50.0 mg/kg/injection, schedule: Q01DX009 (ip), vehicle: Klucel (hydroxypropylcellulose) (HPC).
The mark [6] stands for this setting: dose: 100.0 mg/kg/injection, schedule: Q01DX009 (ip), vehicle: Klucel (hydroxypropylcellulose) (HPC).
[7] abbreviates: dose: 6.25 mg/kg/injection, schedule: Q01DX009 (ip), vehicle: Klucel (hydroxypropylcellulose) (HPC).
Where [8] appears, read: dose: 12.5 mg/kg/injection, schedule: Q01DX009 (ip), vehicle: Klucel (hydroxypropylcellulose) (HPC).

Several values for one entry are separate records, joined by “and”; a condition that tells them apart may be missing. Identical values can stand only once. Toxic doses and inconclusive results are not listed.

As to `COc1cc2c(cc1OC)C(Cc1ccsc1)NCC2` (stereo not drawn), the T/C (dose: 50.0 mg/kg/injection, schedule: Q04DX002 (ip), vehicle: Klucel (hydroxypropylcellulose) (HPC)) was 102 % of control and the T/C (dose: 100.0 mg/kg/injection, schedule: Q04DX002 (ip), vehicle: Klucel (hydroxypropylcellulose) (HPC)) is 100 % of control.

For `c1ccc2c3c(ccc2c1)Oc1ccc2ccccc2c1C3CCC1c2c(ccc3ccccc23)Oc2ccc3ccccc3c21`, the T/C reads like this: under setting [1], 96 % of control; under setting [2], 95 % of control; under setting [3], 86 % of control.

Consider `O=C(c1cc2c(cc1[N+](=O)[O-])OCO2)N1CCc2ccccc21`, for which the T/C runs as follows: (dose: 3.13 mg/kg/injection, schedule: Q01DX009 (ip), vehicle: saline with Tween-80) 99 % of control; (dose: 6.25 mg/kg/injection, schedule: Q01DX009 (ip), vehicle: saline with Tween-80) 99 % of control; (dose: 12.5 mg/kg/injection, schedule: Q01DX009 (ip), vehicle: saline with Tween-80) 96 % of control; (dose: 25.0 mg/kg/injection, schedule: Q01DX009 (ip), vehicle: other) 99 % of control; (dose: 25.0 mg/kg/injection, schedule: Q01DX009 (ip), vehicle: saline with Tween-80) 94 % of control; (dose: 50.0 mg/kg/injection, schedule: Q01DX009 (ip), vehicle: other) 100 % of control. The T/C reads like this: (dose: 100.0 mg/kg/injection, schedule: Q01DX009 (ip), vehicle: other) 107 % of control; (dose: 200.0 mg/kg/injection, schedule: Q01DX009 (ip), vehicle: other) 89 % of control.

Take `NC1[N-]C(C2CCCC[N-]2)CC2CCCCC21.NC1[N-]C(C2CCCC[N-]2)CC2CCCCC21.O=[N+]([O-])O.[Cu+]` (stereo not drawn): the T/C runs as follows: (dose: 6.25 mg/kg/injection, schedule: Q04DX009 (ip), vehicle: suspension in saline) 98 % of control; (dose: 12.5 mg/kg/injection, schedule: Q04DX009 (ip), vehicle: suspension in saline) 103 % of control; (dose: 25.0 mg/kg/injection, schedule: Q04DX009 (ip), vehicle: suspension in saline) 113 % of control.

Take `COc1cccc2c1C(=O)c1c(O)c3c(c(O)c1C2=O)C[C@@](O)(C(C)=O)C[C@@H]3OC1CC(NC(=O)C(N)CC(C)C)C(O)C(C)O1` (stereo partly drawn): the T/C runs as follows: (dose: 3.12 mg/kg/injection, schedule: Q04DX003 (ip), vehicle: saline) 109 % of control; (dose: 6.25 mg/kg/injection, schedule: Q04DX003 (ip), vehicle: saline) 119 % of control; (dose: 25.0 mg/kg/injection, schedule: Q04DX003 (ip), vehicle: saline) 163 % of control and 186 % of control; (dose: 50.0 mg/kg/injection, schedule: Q04DX003 (ip), vehicle: saline) 163 % of control.

Consider `COc1cc(-c2ccc(N=Nc3ccc4c(S(=O)(=O)O)cc(S(=O)(=O)O)c(N)c4c3O)c(OC)c2)ccc1N=Nc1ccc2c(S(=O)(=O)O)cc(S(=O)(=O)O)c(N)c2c1O`, for which the T/C by setting is: (dose: 12.5 mg/kg/injection, schedule: Q01DX009 (ip), vehicle: saline) 94 % of control; (dose: 25.0 mg/kg/injection, schedule: Q01DX009 (ip), vehicle: saline) 92 % of control.

For the compound `Cc1cccc(-c2nnc(N)o2)c1[N+](=O)[O-]`, the T/C runs as follows: under setting [1], 108 % of control; under setting [2], 108 % of control; under setting [3], 101 % of control.

Consider `N#C/C(=C/c1ccc(Cl)cc1)C(N)=O`, for which the T/C is, setting by setting: under setting [4], 102 % of control; (dose: 50.0 mg/kg/injection, schedule: Q01DX001 (ip), vehicle: saline with Tween-80) 104 % of control; (dose: 100.0 mg/kg/injection, schedule: Q01DX001 (ip), vehicle: saline with Tween-80) 97 % of control; (dose: 200.0 mg/kg/injection, schedule: Q01DX001 (ip), vehicle: saline with Tween-80) 97 % of control.

`O=C1CS(=O)(=O)CN1c1ccc(Cl)c(Cl)c1`: the T/C runs as follows: (dose: 50.0 mg/kg/injection, schedule: Q01DX005 (ip), vehicle: acetone) 112 % of control; (dose: 100.0 mg/kg/injection, schedule: Q01DX005 (ip), vehicle: acetone) 109 % of control; (dose: 200.0 mg/kg/injection, schedule: Q01DX005 (ip), vehicle: acetone) 109 % of control.

Regarding `CC(=O)Nc1ccc(S(=O)(=O)NCCSSCCNS(=O)(=O)c2ccc(NC(C)=O)cc2)cc1`, the T/C was 102 % of control under setting [5]; 94 % of control under setting [6]; 91 % of control (dose: 200.0 mg/kg/injection, schedule: Q01DX009 (ip), vehicle: Klucel (hydroxypropylcellulose) (HPC)).

Consider `C=CC(C)(C)n1cc(C2=C(O)C(=O)C(c3cn(C(C)(C)C=C)c4ccccc34)=C(O)C2=O)c2ccccc21`, for which the T/C was 101 % of control (dose: 2.5 mg/kg/injection, schedule: Q01DX009 (ip), vehicle: carboxymethylcellulose (CMC)); 103 % of control and 88 % of control (dose: 5.0 mg/kg/injection, schedule: Q01DX009 (ip), vehicle: carboxymethylcellulose (CMC)); 99 % of control under setting [7]; 108 % of control and 93 % of control (dose: 10.0 mg/kg/injection, schedule: Q01DX009 (ip), vehicle: carboxymethylcellulose (CMC)); 100 % of control under setting [8]; 95 % of control (dose: 18.0 mg/kg/injection, schedule: Q01DX009 (ip), vehicle: Klucel (hydroxypropylcellulose) (HPC)). In addition, the T/C is, setting by setting: (dose: 20.0 mg/kg/injection, schedule: Q01DX009 (ip), vehicle: carboxymethylcellulose (CMC)) 120 % of control and 90 % of control; (dose: 25.0 mg/kg/injection, schedule: Q01DX009 (ip), vehicle: Klucel (hydroxypropylcellulose) (HPC)) 99 % of control; (dose: 26.0 mg/kg/injection, schedule: Q01DX009 (ip), vehicle: Klucel (hydroxypropylcellulose) (HPC)) 104 % of control; (dose: 40.0 mg/kg/injection, schedule: Q01DX009 (ip), vehicle: Klucel (hydroxypropylcellulose) (HPC)) 90 % of control; (dose: 40.0 mg/kg/injection, schedule: Q01DX009 (ip), vehicle: carboxymethylcellulose (CMC)) 114 % of control; under setting [5], 100 % of control. Moreover, under setting [6], the T/C is 113 % of control.

For `O=Nc1c(O)c(Cl)cc2ccccc12`, the T/C by setting is: (dose: 3.12 mg/kg/injection, schedule: Q01DX005 (ip), vehicle: saline with Tween-80) 101 % of control; (dose: 6.25 mg/kg/injection, schedule: Q01DX005 (ip), vehicle: saline with Tween-80) 103 % of control.

Consider `O=C(CBr)Nc1ncc([N+](=O)[O-])s1`, for which the T/C is 102 % of control under setting [7] and 104 % of control under setting [8].

On to `O=NN(CCCl)C(=O)OCc1ccccc1`, for which the T/C is 101 % of control (dose: 3.12 mg/kg/injection, schedule: Q01DX001 (ip), vehicle: saline with Tween-80); 100 % of control and 123 % of control (dose: 6.25 mg/kg/injection, schedule: Q01DX001 (ip), vehicle: saline with Tween-80); 108 % of control and 113 % of control (dose: 12.5 mg/kg/injection, schedule: Q01DX001 (ip), vehicle: saline with Tween-80); 110 % of control and 123 % of control under setting [4].

For the compound `CNC(=S)NNC(=O)C(Cc1ccc([N+](=O)[O-])cc1)C(=O)NNC(=S)NC`, the T/C by setting is: (dose: 100.0 mg/kg/injection, schedule: Q04DX002 (ip), vehicle: saline) 98 % of control; (dose: 200.0 mg/kg/injection, schedule: Q04DX002 (ip), vehicle: saline) 98 % of control; (dose: 400.0 mg/kg/injection, schedule: Q04DX002 (ip), vehicle: saline) 90 % of control.

In the case of `CC(=O)CC1C(=O)OC(C)(C)OC1=O`, the T/C (dose: 50.0 mg/kg/injection, schedule: Q01DX005 (ip), vehicle: saline with Tween-80) was 112 % of control; the T/C (dose: 100.0 mg/kg/injection, schedule: Q01DX005 (ip), vehicle: saline with Tween-80) is 106 % of control; the T/C (dose: 200.0 mg/kg/injection, schedule: Q01DX005 (ip), vehicle: saline with Tween-80) is 103 % of control.

For `CC(=O)Nc1ccc(S(=O)(=O)c2ccc(NC(C)=O)s2)s1`, the T/C runs as follows: (dose: 50.0 mg/kg/injection, schedule: Q01DX005 (ip), vehicle: Klucel (hydroxypropylcellulose) (HPC)) 98 % of control; (dose: 100.0 mg/kg/injection, schedule: Q01DX005 (ip), vehicle: Klucel (hydroxypropylcellulose) (HPC)) 95 % of control; (dose: 200.0 mg/kg/injection, schedule: Q01DX005 (ip), vehicle: Klucel (hydroxypropylcellulose) (HPC)) 89 % of control.

As for `O=C1C2CC3CC4C(=O)C5CC1C1C2C3C4C51` (stereo not drawn), the T/C by setting is: (dose: 50.0 mg/kg/injection, schedule: Q01DX009 (ip), vehicle: saline with Tween-80) 94 % of control; (dose: 100.0 mg/kg/injection, schedule: Q01DX009 (ip), vehicle: saline with Tween-80) 102 % of control; (dose: 200.0 mg/kg/injection, schedule: Q01DX009 (ip), vehicle: saline with Tween-80) 97 % of control.
